ChEMBL document CHEMBL1201862, “PubChem BioAssay data set” (2004)
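Five compound concentrations were applied to cells in 96-well plates for 48 hours; endpoints were derived by simple linear interpolation of the resulting dose-response curve. GI50 is the concentration that inhibits growth by half.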 Calls of active or inactive are those of the source. Rule as the data show it: active = GI50 up to about 1.1 µM and inactive = higher.

Columns and labels:
Experiment in all cases: growth of human tumour cells (NCI), 48 h
CCRF-CEM = tested on: CCRF-CEM
NCI-H522 = tested on: NCI-H522
OVCAR-4 = tested on: OVCAR-4
NCI-H23 = tested on: NCI-H23
LOX IMVI = tested on: LOX IMVI
BT-549 = tested on: BT-549
MOLT-4 = tested on: MOLT-4
UACC-257 = tested on: UACC-257
A549 = tested on: A549
ACHN = tested on: ACHN
T47D = tested on: T47D
SW-620 = tested on: SW-620
CAKI-1 = tested on: CAKI-1
HCC 2998 = tested on: HCC 2998
OVCAR-5 = tested on: OVCAR-5
U-251 = tested on: U-251
HCT-116 = tested on: HCT-116
DU-145 = tested on: DU-145
SR = tested on: SR

Row | Compound | GI50 (CCRF-CEM) | GI50 (NCI-H522) | GI50 (OVCAR-4) | GI50 (NCI-H23) | GI50 (LOX IMVI) | GI50 (BT-549) | GI50 (MOLT-4) | GI50 (UACC-257) | GI50 (A549) | GI50 (ACHN) | GI50 (T47D) | GI50 (SW-620) | GI50 (CAKI-1) | GI50 (HCC 2998) | GI50 (OVCAR-5) | GI50 (U-251) | GI50 (HCT-116) | GI50 (DU-145) | GI50 (SR)
1 | Cc1nc2nc3c(ncn3COCCO)c(O)n2c1C(c1ccccc1)(c1ccccc1)c1ccccc1 | 13.2 µM (inactive) | 12.6 µM (inactive) | 13.6 µM (inactive) | 4.63 µM (inactive) | 13.1 µM (inactive) | 0.6 µM (active) | 8.2 µM (inactive) | 14.1 µM (inactive) | 18.5 µM (inactive) | 18 µM (inactive) | 9.27 µM (inactive) | 19.5 µM (inactive) | 60 µM (inactive) | 13.6 µM (inactive) | 18.7 µM (inactive) | 14.1 µM (inactive) | 15.1 µM (inactive) | 12.5 µM (inactive) | 
2 | COc1cccc(/C=C/c2ccnc3ccccc23)c1OC | 4.6 µM (inactive) | > 10 µM (inactive) | > 10 µM (inactive) | 9.66 µM (inactive) | 4.79 µM (inactive) | > 10 µM (inactive) | 3.89 µM (inactive) | > 10 µM (inactive) | > 10 µM (inactive) | > 10 µM (inactive) | 8.17 µM (inactive) | > 10 µM (inactive) | > 10 µM (inactive) | > 10 µM (inactive) | > 10 µM (inactive) | > 10 µM (inactive) | > 10 µM (inactive) | > 10 µM (inactive) | 
3 | CSC1C(=O)Nc2ccc3ccccc3c21 (configuration not stated) | 21 µM (inactive) | 2.54 µM (inactive) | 20.2 µM (inactive) | > 100 µM (inactive) | 15.7 µM (inactive) | 23.8 µM (inactive) | 28.1 µM (inactive) | 19 µM (inactive) | > 100 µM (inactive) | 27.4 µM (inactive) | 9.71 µM (inactive) | 20.8 µM (inactive) | 19.1 µM (inactive) | > 100 µM (inactive) | > 100 µM (inactive) | 17.8 µM (inactive) | 15.7 µM (inactive) | > 100 µM (inactive) | 
4 | CCOc1ccc(Nc2nc(N)nc(N)c2N)cc1 | 20.2 µM (inactive) | 26 µM (inactive) | 18.4 µM (inactive) | 26.8 µM (inactive) | 36.2 µM (inactive) | 23.2 µM (inactive) | 19.8 µM (inactive) | > 100 µM (inactive) | 45.2 µM (inactive) | 38.7 µM (inactive) | 21.4 µM (inactive) | 33.1 µM (inactive) | 28.6 µM (inactive) |  | 29.6 µM (inactive) | 24.1 µM (inactive) | 30.7 µM (inactive) | > 100 µM (inactive) | 0.472 µM (active)
5 | COc1ccccc1N1C(=O)CS(=O)(=O)C1c1cccc(Oc2ccccc2)c1 (configuration not stated) | 25.8 µM (inactive) | 12.6 µM (inactive) | 15 µM (inactive) | 16.7 µM (inactive) | 17.8 µM (inactive) | 16.9 µM (inactive) | 13.9 µM (inactive) | 11.9 µM (inactive) | 18.9 µM (inactive) | 19 µM (inactive) | 15.6 µM (inactive) | 19.4 µM (inactive) | 19.9 µM (inactive) |  | 26.2 µM (inactive) | 16.1 µM (inactive) | 13.5 µM (inactive) | 23.9 µM (inactive) | 5.57 µM (inactive)
6 | O=C1CC(C(CC(=O)c2ccccc2)c2ccccc2)C(=O)c2ccccc2N1 (configuration not stated) | 25.9 µM (inactive) |  |  | > 100 µM (inactive) | 35.4 µM (inactive) | 29.1 µM (inactive) | 17.8 µM (inactive) | 88.5 µM (inactive) | 38.2 µM (inactive) | 45.3 µM (inactive) | 20.7 µM (inactive) | 68.7 µM (inactive) |  | 48.6 µM (inactive) | 56 µM (inactive) | 84.7 µM (inactive) | 49.3 µM (inactive) | 48.6 µM (inactive) | 16 µM (inactive)
7 | Cn1c2c(c3ccccc31)CC(=S)N1CCCC(CC2O)C1 (configuration not stated) |  | > 100 µM (inactive) | > 100 µM (inactive) | > 100 µM (inactive) | > 100 µM (inactive) | > 100 µM (inactive) |  | > 100 µM (inactive) | > 100 µM (inactive) | > 100 µM (inactive) | > 100 µM (inactive) | > 100 µM (inactive) | > 100 µM (inactive) | > 100 µM (inactive) |  | > 100 µM (inactive) | > 100 µM (inactive) | > 100 µM (inactive) | 
8 | CC(C)C(C(=O)O)N1C(=O)c2ccccc2C1=O (configuration not stated) | > 100 µM (inactive) | > 100 µM (inactive) | > 100 µM (inactive) | > 100 µM (inactive) | > 100 µM (inactive) | > 100 µM (inactive) | > 100 µM (inactive) | > 100 µM (inactive) | > 100 µM (inactive) | > 100 µM (inactive) | > 100 µM (inactive) | > 100 µM (inactive) | > 100 µM (inactive) | > 100 µM (inactive) | > 100 µM (inactive) | > 100 µM (inactive) | > 100 µM (inactive) | > 100 µM (inactive) | 
9 | Cc1oc2c(c1C)S(=O)(=O)C(C#N)=CN2 |  | > 100 µM (inactive) | > 100 µM (inactive) | > 100 µM (inactive) | > 100 µM (inactive) | > 100 µM (inactive) | > 100 µM (inactive) | > 100 µM (inactive) | > 100 µM (inactive) | > 100 µM (inactive) | > 100 µM (inactive) | > 100 µM (inactive) | > 100 µM (inactive) | > 100 µM (inactive) | > 100 µM (inactive) | > 100 µM (inactive) | > 100 µM (inactive) | > 100 µM (inactive) | > 100 µM (inactive)
10 | CN(C)C(=C1c2cc([N+](=O)[O-])ccc2-c2ccc([N+](=O)[O-])cc21)N(C)C | > 100 µM (inactive) | > 100 µM (inactive) | > 100 µM (inactive) | > 100 µM (inactive) |  | > 100 µM (inactive) | 5.24 µM (inactive) | > 100 µM (inactive) | > 100 µM (inactive) | > 100 µM (inactive) | 4.11 µM (inactive) | > 100 µM (inactive) | 5.93 µM (inactive) | > 100 µM (inactive) | > 100 µM (inactive) | > 100 µM (inactive) | > 100 µM (inactive) | > 100 µM (inactive) | 2.37 µM (inactive)
11 | Cc1ncc([N+](=O)[O-])n1CCNC(=O)CCC(=O)NCCCn1ccnc1[N+](=O)[O-] | > 100 µM (inactive) | > 100 µM (inactive) | > 100 µM (inactive) | > 100 µM (inactive) | > 100 µM (inactive) | > 100 µM (inactive) | > 100 µM (inactive) | > 100 µM (inactive) | > 100 µM (inactive) | > 100 µM (inactive) | > 100 µM (inactive) | > 100 µM (inactive) | > 100 µM (inactive) |  | > 100 µM (inactive) | > 100 µM (inactive) | > 100 µM (inactive) | > 100 µM (inactive) | > 100 µM (inactive)
12 | COc1ccc(C2=NN(c3ccccc3)C(c3cc4cc(Br)ccc4nc3Cl)C2)cc1 (configuration not stated) | 24.2 µM (inactive) | 16.7 µM (inactive) | 20.3 µM (inactive) | > 25 µM (inactive) | > 25 µM (inactive) | > 25 µM (inactive) | > 25 µM (inactive) |  | 15.1 µM (inactive) |  | > 25 µM (inactive) | 24.9 µM (inactive) | 22.8 µM (inactive) |  | > 25 µM (inactive) |  | 17.5 µM (inactive) | > 25 µM (inactive) | 16.3 µM (inactive)
13 | O=c1n(CCCN2CCOCC2)nc2n1-c1ccc3ccccc3c1SC2 | 45.5 µM (inactive) | 22.3 µM (inactive) | 56.9 µM (inactive) |  | 26.9 µM (inactive) | 30.7 µM (inactive) | 39.3 µM (inactive) | 29.8 µM (inactive) | 50 µM (inactive) |  | 61.8 µM (inactive) | 37.5 µM (inactive) | 49 µM (inactive) |  | 66.7 µM (inactive) | 57.9 µM (inactive) | 40.8 µM (inactive) | 87.9 µM (inactive) | 71.6 µM (inactive)
14 | CC(=O)O[C@@H]1[C@@H](C)[C@]2(CC(c3ccoc3)OC2O)C2CCC3O[C@]3(C)[C@]2(C)[C@@H]1OC(C)=O (some centres not stated) | 18.2 µM (inactive) | 27.9 µM (inactive) | 12.5 µM (inactive) | 37.4 µM (inactive) | 22.3 µM (inactive) | 25.2 µM (inactive) | 19.1 µM (inactive) | 29.4 µM (inactive) | 47.3 µM (inactive) | 38 µM (inactive) | 28.5 µM (inactive) | 36.4 µM (inactive) | > 100 µM (inactive) |  | > 100 µM (inactive) | 83 µM (inactive) | 33.7 µM (inactive) | 48.1 µM (inactive) | 23.4 µM (inactive)
15 | O=C(Cn1c2ccc(Br)cc2c2nc3ccccc3nc21)NCc1ccccc1 | > 100 µM (inactive) |  | 53.1 µM (inactive) | 37.7 µM (inactive) | 42.9 µM (inactive) | 39.9 µM (inactive) | > 100 µM (inactive) | > 100 µM (inactive) | > 100 µM (inactive) | 13.4 µM (inactive) | 4.1 µM (inactive) | > 100 µM (inactive) | 26.8 µM (inactive) | > 100 µM (inactive) | > 100 µM (inactive) | 15 µM (inactive) | 94.6 µM (inactive) | > 100 µM (inactive) | 39.4 µM (inactive)
16 | COP(=O)(O)/C=C/C(NC(=O)C(Cl)(Cl)Cl)c1ccccc1 (configuration not stated) |  | > 100 µM (inactive) | > 100 µM (inactive) | > 100 µM (inactive) | > 100 µM (inactive) | > 100 µM (inactive) | > 100 µM (inactive) | > 100 µM (inactive) | > 100 µM (inactive) | > 100 µM (inactive) | > 100 µM (inactive) | > 100 µM (inactive) | > 100 µM (inactive) | > 100 µM (inactive) | > 100 µM (inactive) | > 100 µM (inactive) | > 100 µM (inactive) | > 100 µM (inactive) | 
